Experimental data reported in US20230085307A1, “PYRIDAZINONE COMPOUND AND HERBICIDE” (NISSAN CHEMICAL CORPORATION, priority 2019, published 2023).

Tested on: oval-leafed pondweed
Test: Test Example 1: herbicidal activity, application before weed generation under submerged conditions (Table 16, symbol C)
Type: in vivo, oval-leafed pondweed (Monochoria vaginalis)
Conditions: 320 g/ha applied herbicide
Outline: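 Alluvial soil was flooded to 4 cm depth, weed seeds were sown mixed and 2.5-leaf rice seedlings were transplanted. On sowing day, the compound's emulsion, diluted in water to a set dose, was applied to the water surface. Plants grew at 25–30 °C and were scored 0–5 after three weeks.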

SMILES | Herbicidal effect on C: oval-leafed pondweed (grade 0-5)
CCCC(=O)Oc1c(C)nn(C)c(=O)c1-c1c(-c2ccc(C(C)C)cc2)sc2ccccc12 [1-126] | 3 (Herbicidal rate of 40% or more and less than 70%)
COCc1ccc(-c2sc3ccccc3c2-c2c(O)c(C)nn(C)c2=O)cc1 [1-131] | 0 (Herbicidal rate of 5% or less (almost no effect))
Cc1nn(C)c(=O)c(-c2c(-c3ccc(OCc4ccccc4)cc3)sc3ccccc23)c1O [1-133] | 3 (Herbicidal rate of 40% or more and less than 70%)

Tested on: Japanese bulrush
Test: Test Example 2: herbicidal activity, application during weed generation under submerged conditions (Table 17, symbol B)
Type: in vivo, Japanese bulrush (Schoenoplectus juncoides)
Conditions: AAH 320 g/ha; application during weed generation, submerged conditions
Outline: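 3-wk visual-criteria score after one water-surface dose. Emulsion formulation, water-diluted to set rate; applied at 1–2 leaf stage; alluvial soil, 4 cm standing water; seeds co-sown; greenhouse 25–30° C.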

SMILES | herbicidal effect rating, B: Japanese bulrush
CCCC(=O)Oc1c(C)nn(C)c(=O)c1-c1c(-c2ccc(C(C)C)cc2)sc2ccccc12 [1-126] | 3 (Herbicidal rate of 40% or more and less than 70%)
COCc1ccc(-c2sc3ccccc3c2-c2c(O)c(C)nn(C)c2=O)cc1 [1-131] | 1 (Herbicidal rate of 5% or more and less than 20%)
Cc1nn(C)c(=O)c(-c2c(-c3ccc(OCc4ccccc4)cc3)sc3ccccc23)c1O [1-133] | 3 (Herbicidal rate of 40% or more and less than 70%)

Tested on: southern crabgrass
Test: Test Example 4: herbicidal effect by soil treatment (Table 19, symbol F)
Type: in vivo, southern crabgrass (Digitaria ciliaris)
Conditions: AAH 320 g/ha
Outline: (§1)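 Seeds were sown in sterilized diluvial soil and covered with about 1.5 cm of soil. An emulsion formulation diluted with water to a predetermined herbicide amount was sprayed evenly onto the soil surface. Plants grew in a greenhouse at 25° C. to 30° C., and the effect was scored three weeks after application using criteria from an earlier test.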

SMILES | F: southern crabgrass, herbicidal effect rating
CCCC(=O)Oc1c(C)nn(C)c(=O)c1-c1c(-c2ccc(C(C)C)cc2)sc2ccccc12 [1-126] | 0 (Herbicidal rate of 5% or less (almost no effect))
COCc1ccc(-c2sc3ccccc3c2-c2c(O)c(C)nn(C)c2=O)cc1 [1-131] | 4 (Herbicidal rate of 70% or more and less than 90%)
Cc1nn(C)c(=O)c(-c2c(-c3ccc(OCc4ccccc4)cc3)sc3ccccc23)c1O [1-133] | 2 (Herbicidal rate of 20% or more and less than 40%)

Tested on: green foxtail
Test: Test Example 4: herbicidal effect by soil treatment (Table 19, symbol G)
Type: in vivo, green foxtail (Setaria viridis)
Conditions: AAH 320 g/ha
Outline: as §1

SMILES | G: green foxtail, herbicidal effect rating
CCCC(=O)Oc1c(C)nn(C)c(=O)c1-c1c(-c2ccc(C(C)C)cc2)sc2ccccc12 [1-126] | 0 (Herbicidal rate of 5% or less (almost no effect))
COCc1ccc(-c2sc3ccccc3c2-c2c(O)c(C)nn(C)c2=O)cc1 [1-131] | 5 (Herbicidal rate of 90% or more (almost completely withered))
Cc1nn(C)c(=O)c(-c2c(-c3ccc(OCc4ccccc4)cc3)sc3ccccc23)c1O [1-133] | 3 (Herbicidal rate of 40% or more and less than 70%)

Tested on: barnyard grass
Test: Test Example 4: herbicidal effect by soil treatment (Table 19, symbol H)
Type: in vivo, barnyard grass (Echinochloa crus-galli)
Conditions: AAH 320 g/ha
Outline: as §1

SMILES | H: barnyard grass, herbicidal effect rating
CCCC(=O)Oc1c(C)nn(C)c(=O)c1-c1c(-c2ccc(C(C)C)cc2)sc2ccccc12 [1-126] | 0 (Herbicidal rate of 5% or less (almost no effect))
COCc1ccc(-c2sc3ccccc3c2-c2c(O)c(C)nn(C)c2=O)cc1 [1-131] | 5 (Herbicidal rate of 90% or more (almost completely withered))
Cc1nn(C)c(=O)c(-c2c(-c3ccc(OCc4ccccc4)cc3)sc3ccccc23)c1O [1-133] | 2 (Herbicidal rate of 20% or more and less than 40%)

Tested on: wild oat
Test: Test Example 4: herbicidal effect by soil treatment (Table 19, symbol I)
Type: in vivo, wild oat (Avena fatua)
Conditions: AAH 320 g/ha
Outline: as §1

SMILES | I: wild oat, herbicidal effect rating
CCCC(=O)Oc1c(C)nn(C)c(=O)c1-c1c(-c2ccc(C(C)C)cc2)sc2ccccc12 [1-126] | 0 (Herbicidal rate of 5% or less (almost no effect))
COCc1ccc(-c2sc3ccccc3c2-c2c(O)c(C)nn(C)c2=O)cc1 [1-131] | 2 (Herbicidal rate of 20% or more and less than 40%)
Cc1nn(C)c(=O)c(-c2c(-c3ccc(OCc4ccccc4)cc3)sc3ccccc23)c1O [1-133] | 0 (Herbicidal rate of 5% or less (almost no effect))

Tested on: blackgrass
Test: Test Example 4: herbicidal effect by soil treatment (Table 19, symbol J)
Type: in vivo, blackgrass (Alopecurus myosuroides)
Conditions: AAH 320 g/ha
Outline: as §1

SMILES | J: blackgrass, herbicidal effect rating
CCCC(=O)Oc1c(C)nn(C)c(=O)c1-c1c(-c2ccc(C(C)C)cc2)sc2ccccc12 [1-126] | 0 (Herbicidal rate of 5% or less (almost no effect))
COCc1ccc(-c2sc3ccccc3c2-c2c(O)c(C)nn(C)c2=O)cc1 [1-131] | 1 (Herbicidal rate of 5% or more and less than 20%)
Cc1nn(C)c(=O)c(-c2c(-c3ccc(OCc4ccccc4)cc3)sc3ccccc23)c1O [1-133] | 0 (Herbicidal rate of 5% or less (almost no effect))

Tested on: velvetleaf
Test: Test Example 4: herbicidal effect by soil treatment (Table 19, symbol M)
Type: in vivo, velvetleaf (Abutilon theophrasti)
Conditions: AAH 320 g/ha
Outline: as §1

SMILES | M: velvetleaf, herbicidal effect rating
CCCC(=O)Oc1c(C)nn(C)c(=O)c1-c1c(-c2ccc(C(C)C)cc2)sc2ccccc12 [1-126] | 0 (Herbicidal rate of 5% or less (almost no effect))
COCc1ccc(-c2sc3ccccc3c2-c2c(O)c(C)nn(C)c2=O)cc1 [1-131] | 5 (Herbicidal rate of 90% or more (almost completely withered))
Cc1nn(C)c(=O)c(-c2c(-c3ccc(OCc4ccccc4)cc3)sc3ccccc23)c1O [1-133] | 0 (Herbicidal rate of 5% or less (almost no effect))

Tested on: lambsquarters
Test: Test Example 4: herbicidal effect by soil treatment (Table 19, symbol O)
Type: in vivo, lambsquarters (Chenopodium album)
Conditions: AAH 320 g/ha
Outline: as §1

SMILES | O: lambsquarters, herbicidal effect rating
CCCC(=O)Oc1c(C)nn(C)c(=O)c1-c1c(-c2ccc(C(C)C)cc2)sc2ccccc12 [1-126] | 2 (Herbicidal rate of 20% or more and less than 40%)
COCc1ccc(-c2sc3ccccc3c2-c2c(O)c(C)nn(C)c2=O)cc1 [1-131] | 5 (Herbicidal rate of 90% or more (almost completely withered))
Cc1nn(C)c(=O)c(-c2c(-c3ccc(OCc4ccccc4)cc3)sc3ccccc23)c1O [1-133] | 1 (Herbicidal rate of 5% or more and less than 20%)

Tested on: chickweed
Test: Test Example 4: herbicidal effect by soil treatment (Table 19, symbol P)
Type: in vivo, common chickweed (Stellaria media)
Conditions: AAH 320 g/ha
Outline: as §1

SMILES | P: chickweed, herbicidal effect rating
CCCC(=O)Oc1c(C)nn(C)c(=O)c1-c1c(-c2ccc(C(C)C)cc2)sc2ccccc12 [1-126] | 2 (Herbicidal rate of 20% or more and less than 40%)
COCc1ccc(-c2sc3ccccc3c2-c2c(O)c(C)nn(C)c2=O)cc1 [1-131] | 5 (Herbicidal rate of 90% or more (almost completely withered))
Cc1nn(C)c(=O)c(-c2c(-c3ccc(OCc4ccccc4)cc3)sc3ccccc23)c1O [1-133] | 0 (Herbicidal rate of 5% or less (almost no effect))

Tested on: persian speedwell
Test: Test Example 4: herbicidal effect by soil treatment (Table 19, symbol R)
Type: in vivo, Persian speedwell (Veronica persica)
Conditions: AAH 320 g/ha
Outline: as §1

SMILES | R: persian speedwell, herbicidal effect rating
CCCC(=O)Oc1c(C)nn(C)c(=O)c1-c1c(-c2ccc(C(C)C)cc2)sc2ccccc12 [1-126] | 3 (Herbicidal rate of 40% or more and less than 70%)
COCc1ccc(-c2sc3ccccc3c2-c2c(O)c(C)nn(C)c2=O)cc1 [1-131] | 5 (Herbicidal rate of 90% or more (almost completely withered))
Cc1nn(C)c(=O)c(-c2c(-c3ccc(OCc4ccccc4)cc3)sc3ccccc23)c1O [1-133] | 5 (Herbicidal rate of 90% or more (almost completely withered))

Tested on: Italian ryegrass
Test: Test Example 5: herbicidal effect by foliage application, plastic box (Table 20, symbol K)
Type: in vivo, Italian ryegrass (Lolium multiflorum)
Conditions: foliage application, AAH 320 g/ha, three weeks after application
Outline: (§2)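 Plants sown in sterilized diluvial soil and grown 14 days in a greenhouse at 25° C to 30° C, then sprayed on the foliage with the compound's emulsion diluted in water to a predetermined herbicide amount. Injury to weeds and crops scored three weeks after application on a visual rating scale.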

SMILES | K: Italian ryegrass, herbicidal effect
CCCC(=O)Oc1c(C)nn(C)c(=O)c1-c1c(-c2ccc(C(C)C)cc2)sc2ccccc12 [1-126] | 4 (Herbicidal rate of 70% or more and less than 90%)
COCc1ccc(-c2sc3ccccc3c2-c2c(O)c(C)nn(C)c2=O)cc1 [1-131] | 5 (Herbicidal rate of 90% or more (almost completely withered))
Cc1nn(C)c(=O)c(-c2c(-c3ccc(OCc4ccccc4)cc3)sc3ccccc23)c1O [1-133] | 1 (Herbicidal rate of 5% or more and less than 20%)

Tested on: windgrass
Test: Test Example 5: herbicidal effect by foliage application, plastic box (Table 20, symbol L)
Type: in vivo, windgrass (Apera spica-venti)
Conditions: foliage application, AAH 320 g/ha, three weeks after application
Outline: as §2

SMILES | L: windgrass, herbicidal effect
CCCC(=O)Oc1c(C)nn(C)c(=O)c1-c1c(-c2ccc(C(C)C)cc2)sc2ccccc12 [1-126] | 0 (Herbicidal rate of 5% or less (almost no effect))
COCc1ccc(-c2sc3ccccc3c2-c2c(O)c(C)nn(C)c2=O)cc1 [1-131] | 4 (Herbicidal rate of 70% or more and less than 90%)
Cc1nn(C)c(=O)c(-c2c(-c3ccc(OCc4ccccc4)cc3)sc3ccccc23)c1O [1-133] | 0 (Herbicidal rate of 5% or less (almost no effect))

Tested on: velvetleaf
Test: Test Example 5: herbicidal effect by foliage application, plastic box (Table 20, symbol M)
Type: in vivo, velvetleaf (Abutilon theophrasti)
Conditions: foliage application, AAH 320 g/ha, three weeks after application
Outline: as §2

SMILES | M: velvetleaf, herbicidal effect
CCCC(=O)Oc1c(C)nn(C)c(=O)c1-c1c(-c2ccc(C(C)C)cc2)sc2ccccc12 [1-126] | 4 (Herbicidal rate of 70% or more and less than 90%)
COCc1ccc(-c2sc3ccccc3c2-c2c(O)c(C)nn(C)c2=O)cc1 [1-131] | 5 (Herbicidal rate of 90% or more (almost completely withered))
Cc1nn(C)c(=O)c(-c2c(-c3ccc(OCc4ccccc4)cc3)sc3ccccc23)c1O [1-133] | 0 (Herbicidal rate of 5% or less (almost no effect))

Tested on: redroot pigweed
Test: Test Example 5: herbicidal effect by foliage application, plastic box (Table 20, symbol N)
Type: in vivo, redroot pigweed (Amaranthus retroflexus)
Conditions: foliage application, AAH 320 g/ha, three weeks after application
Outline: as §2

SMILES | N: redroot pigweed, herbicidal effect
CCCC(=O)Oc1c(C)nn(C)c(=O)c1-c1c(-c2ccc(C(C)C)cc2)sc2ccccc12 [1-126] | 5 (Herbicidal rate of 90% or more (almost completely withered))
COCc1ccc(-c2sc3ccccc3c2-c2c(O)c(C)nn(C)c2=O)cc1 [1-131] | 5 (Herbicidal rate of 90% or more (almost completely withered))
Cc1nn(C)c(=O)c(-c2c(-c3ccc(OCc4ccccc4)cc3)sc3ccccc23)c1O [1-133] | 5 (Herbicidal rate of 90% or more (almost completely withered))

Tested on: lambsquarters
Test: Test Example 5: herbicidal effect by foliage application, plastic box (Table 20, symbol O)
Type: in vivo, lambsquarters (Chenopodium album)
Conditions: foliage application, AAH 320 g/ha, three weeks after application
Outline: as §2

SMILES | O: lambsquarters, herbicidal effect
CCCC(=O)Oc1c(C)nn(C)c(=O)c1-c1c(-c2ccc(C(C)C)cc2)sc2ccccc12 [1-126] | 4 (Herbicidal rate of 70% or more and less than 90%)
COCc1ccc(-c2sc3ccccc3c2-c2c(O)c(C)nn(C)c2=O)cc1 [1-131] | 5 (Herbicidal rate of 90% or more (almost completely withered))
Cc1nn(C)c(=O)c(-c2c(-c3ccc(OCc4ccccc4)cc3)sc3ccccc23)c1O [1-133] | 5 (Herbicidal rate of 90% or more (almost completely withered))

Tested on: chickweed
Test: Test Example 5: herbicidal effect by foliage application, plastic box (Table 20, symbol P)
Type: in vivo, common chickweed (Stellaria media)
Conditions: foliage application, AAH 320 g/ha, three weeks after application
Outline: as §2

SMILES | P: chickweed, herbicidal effect
CCCC(=O)Oc1c(C)nn(C)c(=O)c1-c1c(-c2ccc(C(C)C)cc2)sc2ccccc12 [1-126] | 5 (Herbicidal rate of 90% or more (almost completely withered))
COCc1ccc(-c2sc3ccccc3c2-c2c(O)c(C)nn(C)c2=O)cc1 [1-131] | 5 (Herbicidal rate of 90% or more (almost completely withered))
Cc1nn(C)c(=O)c(-c2c(-c3ccc(OCc4ccccc4)cc3)sc3ccccc23)c1O [1-133] | 5 (Herbicidal rate of 90% or more (almost completely withered))
